Measured values published in patent publication US10138274B2, “Crystal of cyclic peptide compound, preparation method for same and uses thereof” (SHANGHAI TECHWELL BIOPHARMACEUTICAL CO., LTD, priority 2014, dated 2018).
Numbered stars: 1 amine (or outer) side, 2 acyl side, 3 side chain; on linkers, the order of the positions; unused ones are H or OH. Bridge positions count the residues as written; N and C are the ends. Square brackets hold non-standard residues; d marks the D form. Peptide text beside a SMILES is read from it. * marks the point of attachment. hTyr(3S-OH,4S-OH,3'-OSO3H) = N[C@H](C(=O)O)[C@H](O)[C@@H](O)c1ccc(O)c(OS(=O)(=O)O)c1; Orn(4R-OH,5R-OH) = O=C([C@H](C[C@@H](O)[C@@H](O)N[*:3])N[*:1])[*:2]; Pro(3S-OH,4S-Me) = C[C@H]1CN[C@H](C(=O)O)[C@H]1O; X1 = CCCCCOc1ccc(-c2cc(-c3ccc(C(=O)*)cc3)no2)cc1; Gln(3R-OH) = NC(=O)C[C@@H](O)[C@H](N)C(=O)O; Hyp = O=C(O)[C@@H]1C[C@@H](O)CN1

Assay: Purity and stability test: samples sealed at 25° C. for 30 days, purity by HPLC
Format: physicochemical
Settings: for Purity of initial sample: before storage, HPLC purity (baseline of the stability test); for Purity of sample after stored at 25° C. for 30 days: sealed, HPLC purity
From the text: High performance liquid chromatography (HPLC) is a common method for determining the purity of a compound, wherein a liquid is used as the mobile phase and a high-pressure transfusion system is used for pumping the mobile phase, such as single solvents with different polarities, a mixture of solvents at different proportions, or buffers, into a column packed with a stationary phase. Each component is separated in the column, and then enters into a detector for detection, thereby analyzing a sample. In the present invention, HPLC is used for determining the purity of the compound of formula I and studying the stability of a sample. The HPLC method is as follows:
Analysis Column: YMC-ODS 250×4.6 mm, 5 μm;
Mobile phase: acetonitrile:phosphate buffer (pH 3.0)=45:70;
Column temperature: 35° C.;
Diluent: aqueous phosphate buffer;
Detection wavelength: 210 nm;
In this Example, the purity and stability of the samples obtained in Comparative Examples and Examples were compared. The method used is as follows:
Crystals A-C of the compound of formula I prepared in Examples 2, 11 and 15, the crystal of B82 type obtained in Comparative Example 1 and the amorphous solid obtained in Example 1 were taken respectively and sealed at 25° C. for 30 days. And then the content of impurities in the sample was analyzed. Results of comparing the stability of crystals A-C of the compound of formula I according to the present invention, the crystal of B82 type and the amorphous solid are shown in the following table: […]

Row | Structure (SMILES) | Purity of initial sample | Purity of sample after stored at 25° C. for 30 days | stability compared with the B82-type crystal and the amorphous solid (result in words)
1 | CCCCCOc1ccc(-c2cc(-c3ccc(C(=O)N[C@H]4C[C@@H](O)[C@@H](O)NC(=O)[C@@H]5[C@@H](O)[C@@H](C)CN5C(=O)[C@H]([C@H](O)CC(N)=O)NC(=O)[C@H]([C@H](O)[C@@H](O)c5ccc(O)c(OS(=O)(=O)[O-])c5)NC(=O)[C@@H]5C[C@@H](O)CN5C(=O)[C@H]([C@@H](C)O)NC4=O)cc3)no2)cc1.[Na+] [Crystal C, Sodium 5-[(1S,2S)-2-[(3S,6S,9S,11R,15S,18S,20R,21R,24S,25S,26S)-3-[(R)-2-carbamoyl-1-hydroxyethyl]-11,20,21,25-tetrahydroxy-15-[(R)-1-hydroxyethyl]-26-methyl-2,5,8,14,17,23-hexaoxo-18-[4-[5-(4-pentoxyphenyl)isoxazol-3-yl]benzoylamino]-1,4,7,13,16,22-hexaazatricyclo[22.3.0.0^9,13]heptacosan-6-yl]-1,2-dihydroxyethyl]-2-hydroxy phenyl sulfate.] (X1-[Orn(4R-OH,5R-OH)]T[Hyp][hTyr(3S-OH,4S-OH,3'-OSO3H)][Gln(3R-OH)][Pro(3S-OH,4S-Me)]; lactam 1-C) | 99.64% | 99.43% | 
2 | CCCCCOc1ccc(-c2cc(-c3ccc(C(=O)N[C@H]4C[C@@H](O)[C@@H](O)NC(=O)[C@@H]5[C@@H](O)[C@@H](C)CN5C(=O)[C@H]([C@H](O)CC(N)=O)NC(=O)[C@H]([C@H](O)[C@@H](O)c5ccc(O)c(OS(=O)(=O)[O-])c5)NC(=O)[C@@H]5C[C@@H](O)CN5C(=O)[C@H]([C@@H](C)O)NC4=O)cc3)no2)cc1.[Na+] [Crystal A, Sodium 5-[(1S,2S)-2-[(3S,6S,9S,11R,15S,18S,20R,21R,24S,25S,26S)-3-[(R)-2-carbamoyl-1-hydroxyethyl]-11,20,21,25-tetrahydroxy-15-[(R)-1-hydroxyethyl]-26-methyl-2,5,8,14,17,23-hexaoxo-18-[4-[5-(4-pentoxyphenyl)isoxazol-3-yl]benzoylamino]-1,4,7,13,16,22-hexaazatricyclo[22.3.0.0^9,13]heptacosan-6-yl]-1,2-dihydroxyethyl]-2-hydroxy phenyl sulfate.] (X1-[Orn(4R-OH,5R-OH)]T[Hyp][hTyr(3S-OH,4S-OH,3'-OSO3H)][Gln(3R-OH)][Pro(3S-OH,4S-Me)]; lactam 1-C) | 99.68% | 99.65% | significantly superior than that of the crystal of B82 type
3 | CCCCCOc1ccc(-c2cc(-c3ccc(C(=O)N[C@H]4C[C@@H](O)[C@@H](O)NC(=O)[C@@H]5[C@@H](O)[C@@H](C)CN5C(=O)[C@H]([C@H](O)CC(N)=O)NC(=O)[C@H]([C@H](O)[C@@H](O)c5ccc(O)c(OS(=O)(=O)[O-])c5)NC(=O)[C@@H]5C[C@@H](O)CN5C(=O)[C@H]([C@@H](C)O)NC4=O)cc3)no2)cc1.[Na+] [B82-type Crystal, Sodium 5-[(1S,2S)-2-[(3S,6S,9S,11R,15S,18S,20R,21R,24S,25S,26S)-3-[(R)-2-carbamoyl-1-hydroxyethyl]-11,20,21,25-tetrahydroxy-15-[(R)-1-hydroxyethyl]-26-methyl-2,5,8,14,17,23-hexaoxo-18-[4-[5-(4-pentoxyphenyl)isoxazol-3-yl]benzoylamino]-1,4,7,13,16,22-hexaazatricyclo[22.3.0.0^9,13]heptacosan-6-yl]-1,2-dihydroxyethyl]-2-hydroxy phenyl sulfate., reference compound] (X1-[Orn(4R-OH,5R-OH)]T[Hyp][hTyr(3S-OH,4S-OH,3'-OSO3H)][Gln(3R-OH)][Pro(3S-OH,4S-Me)]; lactam 1-C) | 99.50% | 96.98% | 
4 | CCCCCOc1ccc(-c2cc(-c3ccc(C(=O)N[C@H]4C[C@@H](O)[C@@H](O)NC(=O)[C@@H]5[C@@H](O)[C@@H](C)CN5C(=O)[C@H]([C@H](O)CC(N)=O)NC(=O)[C@H]([C@H](O)[C@@H](O)c5ccc(O)c(OS(=O)(=O)[O-])c5)NC(=O)[C@@H]5C[C@@H](O)CN5C(=O)[C@H]([C@@H](C)O)NC4=O)cc3)no2)cc1.[Na+] [Crystal B, Sodium 5-[(1S,2S)-2-[(3S,6S,9S,11R,15S,18S,20R,21R,24S,25S,26S)-3-[(R)-2-carbamoyl-1-hydroxyethyl]-11,20,21,25-tetrahydroxy-15-[(R)-1-hydroxyethyl]-26-methyl-2,5,8,14,17,23-hexaoxo-18-[4-[5-(4-pentoxyphenyl)isoxazol-3-yl]benzoylamino]-1,4,7,13,16,22-hexaazatricyclo[22.3.0.0^9,13]heptacosan-6-yl]-1,2-dihydroxyethyl]-2-hydroxy phenyl sulfate.] (X1-[Orn(4R-OH,5R-OH)]T[Hyp][hTyr(3S-OH,4S-OH,3'-OSO3H)][Gln(3R-OH)][Pro(3S-OH,4S-Me)]; lactam 1-C) | 99.55% | 99.50% | 
5 | CCCCCOc1ccc(-c2cc(-c3ccc(C(=O)N[C@H]4C[C@@H](O)[C@@H](O)NC(=O)[C@@H]5[C@@H](O)[C@@H](C)CN5C(=O)[C@H]([C@H](O)CC(N)=O)NC(=O)[C@H]([C@H](O)[C@@H](O)c5ccc(O)c(OS(=O)(=O)[O-])c5)NC(=O)[C@@H]5C[C@@H](O)CN5C(=O)[C@H]([C@@H](C)O)NC4=O)cc3)no2)cc1.[Na+] [Amorphous solid, Sodium 5-[(1S,2S)-2-[(3S,6S,9S,11R,15S,18S,20R,21R,24S,25S,26S)-3-[(R)-2-carbamoyl-1-hydroxyethyl]-11,20,21,25-tetrahydroxy-15-[(R)-1-hydroxyethyl]-26-methyl-2,5,8,14,17,23-hexaoxo-18-[4-[5-(4-pentoxyphenyl)isoxazol-3-yl]benzoylamino]-1,4,7,13,16,22-hexaazatricyclo[22.3.0.0^9,13]heptacosan-6-yl]-1,2-dihydroxyethyl]-2-hydroxy phenyl sulfate., reference compound] (X1-[Orn(4R-OH,5R-OH)]T[Hyp][hTyr(3S-OH,4S-OH,3'-OSO3H)][Gln(3R-OH)][Pro(3S-OH,4S-Me)]; lactam 1-C) | 99.38% | 89.27% | 
